Assay [1] concerns HUH7. Kind of assay: CellTiter-Glo IG50, Example 10 HCC panel, HUH7. Particulars: Homo sapiens, Huh-7, HUH7, 72 hours. Format: cell-based. The method, then:
(§1) The cells were harvested during the logarithmic growth period and counted. Cell concentrations were adjusted to the appropriate number in appropriate medium and 90 μl cell suspensions were added to 96-well plates. When cells were added, the plates were shaken gently to distribute the cells evenly. Cells were incubated at 37° C. and 5% CO2.
(§2) 3× serial dilutions of test compound stock solutions with respective solvents were prepared. The stock solutions were diluted with culture medium to generate 10× working solutions of the test compounds. 10 μl of the 10× test compound solutions were added to each well in triplicate for each concentration. Plates were incubated for 72 hours in a humidified incubator at 37° C. and 5% CO2.
(§3) CellTiter-Glo (CTG) solution was thawed and equilibrated to room temperature. 50 μl of CTG were added to each well and the contents were mixed for 2 minutes on a plate shaker. Cells were incubated for 10 minutes before luminescence signal was recorded using Envision.
(§4) Cell viability was plotted with GraphPad Prism version 5 and the IG50 was calculated for each cell line. The graphical curves were fitted using a nonlinear regression model with a sigmoidal dose response. IG50 is the concentration of test drug where 100×T/C=50 (the optical density of the test well after a 3-day period of exposure to test drug is T; the control optical density is C).
(§5) The cells were cultured in an atmosphere of 37° C., 5% CO2 and 95% humidity. All culture media and FBS were purchased from GIBCO, Hyclone or Sigma, USA. The media used for cell culture is described in the table below.
(§6) Following the cell culture protocol and data analysis method described in Example 8, the following IG50 results (in μM) were observed: […]

Assay [2] concerns Hep3B. The assay can be described thus: CellTiter-Glo IG50, Example 8, Hep3B. Format: cell-based. Particulars: Homo sapiens, 72 hours. The method, then:
(§7) Various pancreatic, liver, colon, breast, and stomach cancer cell lines were exposed to the NF-κB inhibitors of the present invention, including, for example, IT-839, IT-843, IT-848, and IT-878, and assessed for IG50 in the CellTiter Glo 2.0 assay.
as §5, §1, §2, §3, §4
On the technique in general: Cellular ATP, detected with luciferase, serves as a proxy for viable cell number.

The test system of assay [3] is HepG2. Kind of assay: CellTiter-Glo IG50, Example 9 HCC panel, HepG2. The note with it: Homo sapiens, HepG2, 72 hours. The assay is classed as cell-based. The method, then:
as §1, §2, §3, §4, §5
(§8) Following the cell culture protocol and data analysis methods described in Example 8, the following IG50 results (in μM) were observed: […]

Assay [4] has as its system PBMC. Kind of assay: CellTiter-Glo IG50, Example 9 HCC panel, PBMC. Format: cell-based. The note with it: 72 hours. On the procedure:
as §1, §2, §3, §4, §5, §8

The subject of assay [5] is Hep3B. The assay can be described thus: CellTiter-Glo IG50, Example 10 HCC panel, Hep3B. The assay is classed as cell-based. The note with it: Homo sapiens, 72 hours. The method, then: as §1, §2, §3, §4, §5, §6
Assay [6] deals with Hep3B. Kind of assay: CellTiter-Glo IG50, Example 9 HCC panel, Hep3B. Format: cell-based. Particulars: Homo sapiens, 72 hours. The method, then: as §1, §2, §3, §4, §5, §8
The subject of assay [7] is PLC/PRF/5. The assay can be described thus: CellTiter-Glo IG50, Example 8, PLC/PRF/5. The assay is classed as cell-based. Particulars: Homo sapiens, PLC/PRF/5, 72 hours. On the procedure: as §7, §5, §1, §2, §3, §4
The subject of assay [8] is JHH5. Kind of assay: CellTiter-Glo IG50, Example 9 HCC panel, JHH5. Format: cell-based. The note with it: JHH5, 72 hours. On the procedure: as §1, §2, §3, §4, §5, §8
In assay [9] the test system is PLC/PRF/5. Kind of assay: CellTiter-Glo IG50, Example 9 HCC panel, PLC/PRF/5. Format: cell-based. Particulars: Homo sapiens, PLC/PRF/5, 72 hours. On the procedure: as §1, §2, §3, §4, §5, §8
The subject of assay [10] is HepG2. The assay can be described thus: CellTiter-Glo IG50, Example 8, HepG2. Particulars: Homo sapiens, HepG2, 72 hours. The assay is classed as cell-based. The method, then:
as §7, §5, §1, §2, §3, §4

The subject of assay [11] is SNU878. The assay can be described thus: CellTiter-Glo IG50, Example 9 HCC panel, SNU878. The note with it: SNU878, 72 hours. Format: cell-based. The method, then:
as §1, §2, §3, §4, §5, §8

Assay [12] deals with PBMC. The assay can be described thus: CellTiter-Glo IG50, Example 10 HCC panel, PBMC. Format: cell-based. Particulars: 72 hours. The method, then: as §1, §2, §3, §4, §5, §6
The test system of assay [13] is SNU878. Kind of assay: CellTiter-Glo IG50, Example 10 HCC panel, SNU878. Format: cell-based. Particulars: SNU878, 72 hours. On the procedure: as §1, §2, §3, §4, §5, §6
For assay [14], the system named is PLC/PRF/5. The assay can be described thus: CellTiter-Glo IG50, Example 10 HCC panel, PLC/PRF/5. Particulars: Homo sapiens, PLC/PRF/5, 72 hours. The assay is classed as cell-based. The method, then: as §1, §2, §3, §4, §5, §6
The test system of assay [15] is HUH7. Kind of assay: CellTiter-Glo IG50, Example 9 HCC panel, HUH7. The note with it: Homo sapiens, Huh-7, HUH7, 72 hours. Format: cell-based. On the procedure: as §1, §2, §3, §4, §5, §8
The subject of assay [16] is JHH5. Kind of assay: CellTiter-Glo IG50, Example 10 HCC panel, JHH5. The assay is classed as cell-based. Particulars: JHH5, 72 hours. On the procedure: as §1, §2, §3, §4, §5, §6
In assay [17] the test system is HepG2. Kind of assay: CellTiter-Glo IG50, Example 10 HCC panel, HepG2. Format: cell-based. The note with it: Homo sapiens, HepG2, 72 hours. On the procedure:
as §1, §2, §3, §4, §5, §6

Assay [18] concerns the target T1, c-Rel protein (Homo sapiens, UniProt Q04864).
T1 sequence (Q04864 1-619): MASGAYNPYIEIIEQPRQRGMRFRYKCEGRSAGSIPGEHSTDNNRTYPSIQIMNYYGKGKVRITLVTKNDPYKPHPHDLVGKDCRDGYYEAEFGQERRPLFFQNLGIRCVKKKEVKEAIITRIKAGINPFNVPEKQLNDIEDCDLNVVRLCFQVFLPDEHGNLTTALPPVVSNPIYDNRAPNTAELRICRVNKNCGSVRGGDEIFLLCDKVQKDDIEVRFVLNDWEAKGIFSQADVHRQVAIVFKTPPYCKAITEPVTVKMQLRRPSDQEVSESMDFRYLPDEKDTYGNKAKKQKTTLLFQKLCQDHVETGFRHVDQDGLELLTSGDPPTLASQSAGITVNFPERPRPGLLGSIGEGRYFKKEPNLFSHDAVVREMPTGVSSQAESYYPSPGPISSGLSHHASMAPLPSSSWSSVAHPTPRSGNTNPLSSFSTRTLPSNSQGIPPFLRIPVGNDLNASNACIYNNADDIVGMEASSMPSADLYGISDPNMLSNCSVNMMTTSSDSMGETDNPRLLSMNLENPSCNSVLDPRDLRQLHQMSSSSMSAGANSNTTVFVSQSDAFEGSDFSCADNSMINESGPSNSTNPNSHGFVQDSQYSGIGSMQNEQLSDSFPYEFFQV
Kind of assay: Electrophoretic Mobility Shift Assay (EMSA), c-Rel binding to CD28RE oligonucleotide. Particulars: 10 nM c-Rel protein. On the procedure:
DNA binding reaction (20 μL) was carried out in 1×DNA Binding Buffer (10 mM Tris, 40 mM NaCl, 1 mM EDTA, 4% glycerol) with 10 nM c-Rel protein and 0.5 ng phosphor-labeled CD28RE oligonucleotide for 10 minutes at room temperature in 96-well plates. Test compounds, in serial dilutions, were added into each well, and further incubated for 15 minutes before loading onto native 5% polyacrylamide gel. Electrophoresis proceeded for 2.5 hours at 160V. Radioactive signals were quantified using Phospho-Imager. IC50 of compounds of example 1 to 75 were determined by quantifying the intensity of Rel/NF-κB inhibition in EMSA using phospho-imager. An example of EMSA data of the present invention is shown for compound 6 in FIG. 2.

For assay [19], the system named is NF-κB. Kind of assay: NF-κB GFP assay in NFκB/Jurkat/GFP transcriptional reporter cells stimulated with TNF-α. Format: cell-based. Particulars: Homo sapiens, TNF-α 5 ng/ml, 24 hours, read-out: NF-KB GFP IC50. The method, then: NFκB/Jurkat/GFP transcriptional reporter cell line was obtained from SBI System Biosciences. NF-κB/Jurkat/GFP™ Reporter cells (5×10^5 cells) were plated at a concentration of 1 million cells/ml into each well of a 24-well plate. TNF-α (5 ng/ml) was added. Compounds were added via serial dilutions to corresponding wells. After 24 hours, 100 μl of the cells were transferred to a well of a Costar® UV plate (96 well, No lid, w/UV Transparent Flat Bottom, Corning, N.Y., Cat #3635) and the intensity of GFP fluorescence was measured (Excitation 485+/−20, Emission 528+/−20) in a Synergy™ HT Multi-Detection Microplate Reader (BioTech, Winooski, Vt.). The intensities of GFP measured were plotted against the […].

As to `CNC(=O)c1cc(Oc2ccc(NC(=O)Nc3ccc(Cl)c(C(F)(F)F)c3)cc2)ccn1` [Sorafenib, sorafenib, reference compound], the IC50 in assay [1] was determined as 5.14 µM; in assay [2], 7.49 µM; in [3], 3.15 µM; in [4], 19.5 µM; in assay [5] it was 6.42 µM; in assay [6] it was 7.57 µM. Also, the IC50 in assay [7] worked out at 10.8 µM; in [8] it was 3.21 µM; in [9], 10.8 µM; in assay [10], 5.14 µM; in [11], 12.7 µM; in [12] it was 14.4 µM. The IC50 was 10.6 µM in assay [13]; 10.1 µM in assay [14]; 6.57 µM in assay [15]; 7.13 µM in assay [16]; 4.37 µM in assay [17].
For `COc1cc(OC)c2cc3c(=O)[nH]c(=O)nc-3oc2c1` [compound 14, 6,8-dimethoxy-2H-chromeno[2,3-d]pyrimidine-2,4(3H)-dione], the values for the IC50 in [18] and in assay [19] were less than 1 µM and 8.2 µM, respectively.
`O=C(O)CCCCOc1ccc2cc3c(=O)[nH]c(=O)nc-3oc2c1Cl` [compound 54]: the IC50 is less than 5 µM in assay [18] and less than 20 µM in [19].

One may read the IC50 as the concentration needed to halve the response being measured.

The values above are taken from US11083729B2, “Methods of treating cancer with small molecule NF-κB inhibitors” (ImmuneTarget, Inc., priority 2017, dated 2021).
